# Legend:
# [1] = tested on: Klotho; experiment: Klotho trafficking/processing in HEK293 cells stably expressing Klotho; assay type: cell-based; conditions: 10 μM, 16 h
# Experimental: FIG. 3: Effect of compounds on NotchΔE-EGFP, APP and Klotho trafficking and processing. a) HEK293 stably expressing APPswe or Klotho (KI) were incubated with DAPT or compounds (10 μM) for 16 h. Media were collected, cells lysed and both assayed by Western blotting using indicated antibodies. m, mature; im, immature; s, shedded ectodomain; CTF, C-terminal fragment. b) Membranes from HeLa-NotchΔE-EGFP and APPswe cells were isolated and subjected to a γ-secretase in vitro assay in the presence of DAPT or compounds as indicated. NICD and AICD were detected by Western Blotting using antibodies against the C-terminus of APP (top) or antibodies specific for NICD (bottom). c) Quantitation from 5 independent experiments.
# To test whether FLI-06 affected other membrane proteins, Klotho, a type I protein processed like APP and Notch^20, was analyzed. […] To analyze γ-secretase activity, in vitro assays using isolated membranes were performed (FIG. 3b, c). Production of NICD-EGFP and AICD (APP intracellular domain) were assayed. Both were produced in vitro at 37° C. but not at 4° C., and their production was inhibited by DAPT.
# APP, APPs, APPCTF and Aβ detection was as described before^54 using antibodies 22C11 for APP and APPs, 6687 for APPCTF and 3552 and 2D8 for Aβ. Klotho was detected as described in Bloch et al.^20. Chemoluminescence was quantified on a LAS-4000 (Fuji) with MultiGauge software.
# [2] = tested on: KlothoS; experiment: Secretion of KlothoS from transfected HeLa cells; assay type: cell-based; conditions: 18 h
# Experimental: Thereafter cells were fixed and analyzed by immunofluorescence microscopy. […] After incubating with compounds for 18 h media were collected, cells lysed and both analyzed by Western Blotting using Klotho antibody. As loading control membranes were probed for actin. […] […] Tunicamycin (Tun) and 5 mM DTT were used as positive controls. […] Shown is the average of three independent experiments, error bars indicate standard deviation.
structure (smiles),measurement,setting,value
"CC1=C(C(=O)OC2CCCCC2)C(c2ccc([N+](=O)[O-])cc2)C2=C(CC(C)(C)CC2=O)N1 (stereo not shown) [FLI-06, Cyclohexyl 4-(4′-nitrophenyl)-2,7,7-trimethyl-5-oxo-1,4,5,6,7,8-hexahydroquinoline-3-carboxylate]",glycosylation of Klotho,[1],aberrant glycosylation
same,"mature, complex-glycosylated post-Golgi form of Klotho",[1],strongly reduced
same,shedded Klothos in the medium,[1],strong reduction of Klothos in the medium
same,secretion of KlothoS,[2],inhibit secretion of KlothoS

# From patent US9828344B2, “Inhibitors of the notch signaling pathway and secretion for use in medicine” (Leibniz-Institut für Altersforschung Fritz-Lipmann-Institut …, priority 2012, dated 2017)
